According to the NIST ThermoML archive (doi:10.1016/j.tca.2013.03.025):

Assay: xn = mol fraction of the nth substance listed
Details: 101 kPa, Liquid; for viscosity: Concentric cylinders viscometry; for mass density: Vibrating tube method

CCCCOC(=O)C(C)O (stereo not given) [butyl 2-hydroxypropanoate] + CCCO
Details | mass density [kg/m3] | viscosity [mPa·s]
288.15 K, x1 = 0.1 | 841.535 | 2.632
288.15 K, x1 = 0.2 | 869.447 | 2.786
288.15 K, x1 = 0.3001 | 892.853 | 2.979
288.15 K, x1 = 0.3998 | 912.61 | 3.19
288.15 K, x1 = 0.5 | 929.664 | 3.406
288.15 K, x1 = 0.5999 | 944.359 | 3.623
288.15 K, x1 = 0.7001 | 957.317 | 3.83
288.15 K, x1 = 0.7996 | 968.544 | 4.04
288.15 K, x1 = 0.8998 | 978.506 | 4.287
288.15 K, x1 = 1 | 987.269 | 4.628
293.15 K, x1 = 0.1 | 837.385 | 2.305
293.15 K, x1 = 0.2 | 865.152 | 2.431
293.15 K, x1 = 0.3001 | 888.44 | 2.584
293.15 K, x1 = 0.3998 | 908.086 | 2.751
293.15 K, x1 = 0.5 | 925.055 | 2.921
293.15 K, x1 = 0.5999 | 939.67 | 3.092
293.15 K, x1 = 0.7001 | 952.563 | 3.257
293.15 K, x1 = 0.7996 | 963.731 | 3.426
293.15 K, x1 = 0.8998 | 973.646 | 3.622
293.15 K, x1 = 1 | 982.366 | 3.88
298.15 K, x1 = 0.1 | 833.207 | 2.034
298.15 K, x1 = 0.2 | 860.837 | 2.147
298.15 K, x1 = 0.3001 | 883.997 | 2.277
298.15 K, x1 = 0.3998 | 903.535 | 2.413
298.15 K, x1 = 0.5 | 920.415 | 2.548
298.15 K, x1 = 0.5999 | 934.96 | 2.679
298.15 K, x1 = 0.7001 | 947.782 | 2.81
298.15 K, x1 = 0.7996 | 958.893 | 2.946
298.15 K, x1 = 0.8998 | 968.763 | 3.104
298.15 K, x1 = 1 | 977.448 | 3.307
303.15 K, x1 = 0.1 | 828.994 | 1.796
303.15 K, x1 = 0.2 | 856.474 | 1.888
303.15 K, x1 = 0.3001 | 879.517 | 1.994
303.15 K, x1 = 0.3998 | 898.955 | 2.105
303.15 K, x1 = 0.5 | 915.748 | 2.219
303.15 K, x1 = 0.5999 | 930.218 | 2.328
303.15 K, x1 = 0.7001 | 942.977 | 2.439
303.15 K, x1 = 0.7996 | 954.036 | 2.554
303.15 K, x1 = 0.8998 | 963.865 | 2.685
303.15 K, x1 = 1 | 972.515 | 2.85
308.15 K, x1 = 0.1 | 824.744 | 1.603
308.15 K, x1 = 0.2 | 852.093 | 1.679
308.15 K, x1 = 0.3001 | 875.001 | 1.769
308.15 K, x1 = 0.3998 | 894.346 | 1.862
308.15 K, x1 = 0.5 | 911.045 | 1.957
308.15 K, x1 = 0.5999 | 925.444 | 2.05
308.15 K, x1 = 0.7001 | 938.146 | 2.143
308.15 K, x1 = 0.7996 | 949.162 | 2.238
308.15 K, x1 = 0.8998 | 958.949 | 2.346
308.15 K, x1 = 1 | 967.567 | 2.481
313.15 K, x1 = 0.1 | 820.45 | 1.431
313.15 K, x1 = 0.2 | 847.649 | 1.5
313.15 K, x1 = 0.3001 | 870.443 | 1.579
313.15 K, x1 = 0.3998 | 889.684 | 1.659
313.15 K, x1 = 0.5 | 906.306 | 1.739
313.15 K, x1 = 0.5999 | 920.642 | 1.818
313.15 K, x1 = 0.7001 | 933.287 | 1.899
313.15 K, x1 = 0.7996 | 944.258 | 1.982
313.15 K, x1 = 0.8998 | 954.012 | 2.075
313.15 K, x1 = 1 | 962.603 | 2.181
318.15 K, x1 = 0.1 | 816.108 | 1.287
318.15 K, x1 = 0.2 | 843.16 | 1.349
318.15 K, x1 = 0.3001 | 865.84 | 1.417
318.15 K, x1 = 0.3998 | 884.981 | 1.486
318.15 K, x1 = 0.5 | 901.531 | 1.554
318.15 K, x1 = 0.5999 | 915.803 | 1.623
318.15 K, x1 = 0.7001 | 928.398 | 1.693
318.15 K, x1 = 0.7996 | 939.33 | 1.766
318.15 K, x1 = 0.8998 | 949.054 | 1.847
318.15 K, x1 = 1 | 957.624 | 1.935
323.15 K, x1 = 0.1 | 811.714 | 1.169
323.15 K, x1 = 0.2 | 838.623 | 1.222
323.15 K, x1 = 0.3001 | 861.188 | 1.28
323.15 K, x1 = 0.3998 | 880.239 | 1.339
323.15 K, x1 = 0.5 | 896.715 | 1.398
323.15 K, x1 = 0.5999 | 910.93 | 1.458
323.15 K, x1 = 0.7001 | 923.482 | 1.519
323.15 K, x1 = 0.7996 | 934.378 | 1.584
323.15 K, x1 = 0.8998 | 944.076 | 1.653
323.15 K, x1 = 1 | 952.631 | 1.728
